Measured values published in ChEMBL document CHEMBL3751794, “α-Aryl pyrrolidine sulfonamides as TRPA1 antagonists” (Bioorg Med Chem Lett, 2016).

Legend:
[1] = Lipophilicity, log D of compound at pH 7.4; format: physicochemical; conditions: buffer
[2] = target: Transient receptor potential cation channel subfamily A member 1 (Homo sapiens, UniProt O75762); experiment: Inhibition of human TRPA1
[3] = target: Transient receptor potential cation channel subfamily A member 1 (Rattus norvegicus, UniProt Q6RI86); experiment: Inhibition of rat TRPA1
Transient receptor potential cation channel subfamily A member 1 (Rattus norvegicus, UniProt Q6RI86), sequence (Q6RI86 whole entry): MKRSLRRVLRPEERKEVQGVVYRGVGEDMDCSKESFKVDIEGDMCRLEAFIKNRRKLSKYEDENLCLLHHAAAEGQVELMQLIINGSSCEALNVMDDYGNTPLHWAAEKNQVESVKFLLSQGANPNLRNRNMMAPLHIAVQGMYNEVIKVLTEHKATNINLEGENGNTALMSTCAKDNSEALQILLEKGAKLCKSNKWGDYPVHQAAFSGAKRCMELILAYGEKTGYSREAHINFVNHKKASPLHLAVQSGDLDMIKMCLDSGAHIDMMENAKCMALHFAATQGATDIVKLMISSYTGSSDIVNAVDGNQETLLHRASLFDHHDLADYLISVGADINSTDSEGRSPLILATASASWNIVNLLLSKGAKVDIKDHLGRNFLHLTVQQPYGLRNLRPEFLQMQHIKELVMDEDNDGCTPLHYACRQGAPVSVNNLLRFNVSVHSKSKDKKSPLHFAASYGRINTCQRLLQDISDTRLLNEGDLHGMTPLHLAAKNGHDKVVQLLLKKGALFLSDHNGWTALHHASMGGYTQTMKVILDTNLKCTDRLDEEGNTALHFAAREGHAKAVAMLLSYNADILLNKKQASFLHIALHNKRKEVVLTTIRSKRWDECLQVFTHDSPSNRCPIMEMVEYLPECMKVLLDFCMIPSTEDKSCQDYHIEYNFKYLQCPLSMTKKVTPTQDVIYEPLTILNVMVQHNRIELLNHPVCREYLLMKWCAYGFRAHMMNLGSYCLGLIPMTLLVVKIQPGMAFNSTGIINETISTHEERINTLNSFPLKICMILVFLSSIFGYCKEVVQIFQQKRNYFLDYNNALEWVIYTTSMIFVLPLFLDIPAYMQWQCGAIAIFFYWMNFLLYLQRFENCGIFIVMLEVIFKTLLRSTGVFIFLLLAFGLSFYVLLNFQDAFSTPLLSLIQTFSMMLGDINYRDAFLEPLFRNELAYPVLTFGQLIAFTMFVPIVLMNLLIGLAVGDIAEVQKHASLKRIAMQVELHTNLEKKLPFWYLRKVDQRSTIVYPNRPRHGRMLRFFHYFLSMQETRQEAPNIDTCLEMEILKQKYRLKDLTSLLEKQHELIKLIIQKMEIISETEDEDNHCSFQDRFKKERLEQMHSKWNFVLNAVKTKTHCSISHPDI

[4] = Permeability across MDCK cells; format: ADME, cell-based, Canis lupus familiaris; conditions: dog, read-out: permeability
[5] = Plasma protein binding in human; format: ADME, cell-free; conditions: read-out: PPB (converted)
[6] = Kinetic solubility of compound; format: physicochemical; conditions: read-out: Kinetic_solubility

Transient receptor potential cation channel subfamily A member 1 (Homo sapiens, UniProt O75762), sequence (O75762 whole entry): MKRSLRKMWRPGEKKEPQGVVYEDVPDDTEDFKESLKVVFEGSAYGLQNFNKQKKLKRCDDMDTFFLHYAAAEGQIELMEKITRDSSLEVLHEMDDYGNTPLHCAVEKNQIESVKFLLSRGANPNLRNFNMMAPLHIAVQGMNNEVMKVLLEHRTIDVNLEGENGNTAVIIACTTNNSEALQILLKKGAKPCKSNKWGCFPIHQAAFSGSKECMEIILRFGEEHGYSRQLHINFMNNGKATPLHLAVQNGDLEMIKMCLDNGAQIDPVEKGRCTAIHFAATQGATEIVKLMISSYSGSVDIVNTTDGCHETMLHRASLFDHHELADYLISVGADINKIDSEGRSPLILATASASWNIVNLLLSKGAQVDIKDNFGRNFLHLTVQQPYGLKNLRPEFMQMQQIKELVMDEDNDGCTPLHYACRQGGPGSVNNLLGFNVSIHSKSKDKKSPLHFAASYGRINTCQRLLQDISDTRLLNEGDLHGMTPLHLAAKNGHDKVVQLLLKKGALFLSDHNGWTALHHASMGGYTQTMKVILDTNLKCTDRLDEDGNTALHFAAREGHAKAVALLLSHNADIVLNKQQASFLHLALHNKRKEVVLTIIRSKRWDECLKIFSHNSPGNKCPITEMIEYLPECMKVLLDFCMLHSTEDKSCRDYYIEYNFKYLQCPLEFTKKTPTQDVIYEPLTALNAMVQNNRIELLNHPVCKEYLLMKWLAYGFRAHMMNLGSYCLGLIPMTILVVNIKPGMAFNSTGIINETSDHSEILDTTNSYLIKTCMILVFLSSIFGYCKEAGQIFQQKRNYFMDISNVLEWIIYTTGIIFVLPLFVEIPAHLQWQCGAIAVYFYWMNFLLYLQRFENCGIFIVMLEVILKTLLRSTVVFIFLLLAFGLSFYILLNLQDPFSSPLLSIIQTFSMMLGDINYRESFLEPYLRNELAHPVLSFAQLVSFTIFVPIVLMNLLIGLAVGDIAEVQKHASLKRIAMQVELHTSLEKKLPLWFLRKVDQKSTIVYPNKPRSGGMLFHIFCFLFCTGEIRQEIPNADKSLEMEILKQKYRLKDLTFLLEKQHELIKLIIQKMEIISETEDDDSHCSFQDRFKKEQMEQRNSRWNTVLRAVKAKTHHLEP

Row | Structure (SMILES) | logD [1] | IC50 [2] | IC50 [3] | Papp [4] | fraction unbound [5] | solubility kinetic [6]
1 | Cc1cc(S(=O)(=O)N2[C@H](CO)CC[C@@H]2c2ccc(F)cc2)ccc1F | 2.8 | 190 nM |  |  |  | 
2 | Cc1cc(CN2[C@H](CO)CC[C@@H]2c2ccc(F)cc2)cc(C)c1F | 4 | 6700 nM |  |  |  | 
3 | COC[C@@H]1CC[C@H](c2ccc(F)cc2)N1S(=O)(=O)c1cc(C)c(F)c(C)c1 | 3.9 | 270 nM |  |  |  | 
4 | Cc1cc(S(=O)(=O)N2C[C@H](F)C[C@@H]2c2ccc(F)cc2)cc(C)c1F | 2.6 | 380 nM |  |  |  | 
5 | CNC[C@@H]1CC[C@H](c2ccc(F)cc2)N1S(=O)(=O)c1cc(C)c(F)c(C)c1 | 2.7 | > 20000 nM |  |  |  | 
6 | Cc1cc(S(=O)(=O)N2[C@H](CNCC(F)(F)F)CC[C@@H]2c2ccc(F)cc2)cc(C)c1F | 4.3 | > 20000 nM |  |  |  | 
7 | O=S(=O)(c1cc(Cl)c(F)c(Cl)c1)N1[C@H](CO)CC[C@@H]1c1ccc(F)cc1 | 3.8 | 110 nM | 7300 nM | 5.7 ×10⁻⁶ cm/s | 0.006 | < 1 µM
8 | Cc1cc(C(=O)N2[C@H](CO)CC[C@@H]2c2ccc(F)cc2)cc(C)c1F | 3.1 | > 20000 nM |  |  |  | 
9 | O=S(=O)(c1cccnc1)N1[C@H](CO)CC[C@@H]1c1ccc(F)cc1 | 1.1 | > 20000 nM |  |  |  | 
10 | Cc1cc(S(=O)(=O)N2[C@H](CO)CC[C@@H]2c2ccc(F)cc2)cc(C)c1F | 3.3 | 63 nM |  |  |  | 
11 | Cc1cc(S(=O)(=O)N2CC(F)(F)C[C@@H]2c2ccc(F)cc2)cc(C)c1F | 4.2 | 23 nM |  |  |  | 
12 | Cc1cc(S(=O)(=O)N2CCC[C@@H]2c2ccc(F)cc2)cc(C)c1F | 4.4 | 110 nM |  |  |  | 
13 | O=S(=O)(c1cc(Cl)c(F)c(Cl)c1)N1CCC[C@@H]1c1ccc(F)cc1 | 4.6 | 350 nM |  |  |  | 
14 | Cc1cc(S(=O)(=O)N2[C@H](CO)CC[C@@H]2c2ccc(F)cc2)cc(Cl)c1F | 3.6 | 130 nM |  |  |  | 
15 | O=S(=O)(c1ccc(F)cn1)N1[C@H](CO)CC[C@@H]1c1ccc(F)cc1 | 2 | > 20000 nM |  |  |  | 
16 | Cc1cc(C)cc(S(=O)(=O)N2[C@H](CO)CC[C@@H]2c2ccc(F)cc2)c1 | 3.2 | 290 nM |  |  |  | 
17 | Cc1cc(S(=O)(=O)N2CC[C@@H](F)[C@@H]2c2ccc(F)cc2)cc(C)c1F | 3.9 | 20 nM |  |  |  | 
18 | Cc1cc(S(=O)(=O)N2[C@H](CN(C)C)CC[C@@H]2c2ccc(F)cc2)cc(C)c1F | 3.7 | > 18000 nM |  |  |  | 
19 | O=S(=O)(c1ccccc1)N1[C@H](CO)CC[C@@H]1c1ccc(F)cc1 | 2.2 | > 19000 nM |  |  |  | 
20 | O=S(=O)(c1ccc(F)cc1)N1CCC[C@@H]1c1ccc(F)cc1 | 3.2 | 6600 nM |  |  |  | 
